Like-named read-outs stand apart in the source and are kept apart here.

In test [1] the test system is telo23-K+ (hybrid type human telomeric G4). In words: UV-Vis titration, telo23-K+. The settings on record: for Ka, telo23-K+: UV-Vis titration. It counts as binding. How it is done:
(§1) To obtain quantitative information on the binding of NDI 1 and PDI 3 to the previously assessed G4 and duplex DNA structures, ultraviolet‐visible absorbance spectroscopy (UV‐Vis) titrations were conducted (Figure 3 and S10). In all cases the ligand concentration was kept constant at 10 μM, whilst oligonucleotide was titrated in up to a final concentration of 30 μM. The observed binding isotherms were fitted to an independent/equivalent sites binding model, and binding constants (K a) were determined. […]
(§2) telo22-Na+ (antiparallel basket […]
(§3) telo23 and telo22 were selected as models for the human telomeric G-quadruplex under K+ and Na+ conditions, respectively, as they have been the subject of detailed structural studies,[S8,S9] […]
(§4) used. telo23 forms primarily a (3+1) hybrid structure under K+ conditions,[S8] whilst telo22 forms a single antiparallel fold.[S9]
The oligonucleotides were at a concentration of 5 µM and the buffers used were either potassium phosphate (100 mM, pH 7.4) for telo23-K+, EBR1-K+ and ds26-K+ or sodium phosphate (100 mM, pH 7.4) for telo22-Na+. The reported spectrum for each sample represents the average of 3 scans and is baseline corrected for the buffer used. Data processing was carried out using Prism 7 (GraphPad Software) with a 4-point second order smoothing polynomial applied to all spectra. Observed ellipticities were converted to molar ellipticity.
(§5) UV-Visible Absorbance Spectroscopy
Absorbance spectra were recorded on a Cary 60 UV-Visible (UV-Vis) spectrophotometer using a room-light immune fibre optic probe with 10 mm path length. The UV-Vis spectra were […]
were corrected for background and buffer absorbance. The oligonucleotides and buffer conditions were the same as employed in the CD experiments.
In the titrations, the concentration of ligand was fixed at 10 µM in an initial volume of 500 µL.
Aliquots of oligonucleotide were added using a microsyringe from a 100 µM stock solution in appropriate buffer containing also 10 µM ligand to maintain constant ligand concentration.
Note: the oligonucleotide solution was annealed by heating to 90 °C for 2 minutes and then cooling on ice prior to the addition of ligand (to avoid annealing in the presence of ligand).
Following addition, the solution was mixed thoroughly and the UV-visible spectrum was […]

The test system of test [2] is telo22-Na+ (antiparallel basket human telomeric G4). The experiment in a line: UV-Vis titration, telo22-Na+. It counts as binding. How it is done: as §1, §2, §3, §4
(§6) The oligonucleotides were at a concentration of 5 µM and the buffers used were either potassium phosphate (100 mM, pH 7.4) for telo23-K+, EBR1-K+ and ds26-K+ or sodium phosphate (100 mM, pH 7.4) for telo22-Na+. […]
as §5
(§7) Absorbance spectra were recorded on a Cary 60 UV-Visible (UV-Vis) spectrophotometer using a room-light immune fibre optic probe with 10 mm path length. […]
(§8) were corrected for background and buffer absorbance. […]

For test [3], the system named is EBR1-K+ (mixed G4 from T. brucei). In words: UV-Vis titration, EBR1-K+. It counts as binding. How it is done: as §1, §2, §3, §4, §6, §5, §7, §8
Test [4] concerns ds26-K+ (self-complementary duplex). The experiment in a line: UV-Vis titration, ds26-K+. Type of test: binding. How it is done:
as §1, §2, §3, §4, §6, §5, §7, §8

The test system of the next test is MRC5 non-tumoral cells. The experiment in a line: Cytotoxicity, alamarBlue assay, MRC5. The settings on record: 72 h incubation, alamarBlue fluorescence, read-out: absolute EC50 MRC5. Type of test: cell-based, human. How it is done:
(§9) Doxorubicin, suramin and miltefosine were used as control compounds.[ ^6b , ^9 ] After incubation with varied concentrations of the compounds for 72 h, cell viability was measured using either an alamarBlue™ assay (for MRC5, HeLa and T. brucei) or MTT assay (for L. major). Absolute EC50 values and selectivity indexes were then calculated from dose‐response curves (Table 2 and S14). […]
(§10) Cell culture reagents were purchased from Thermo Fisher Scientific (Waltham, MA, USA) and used as-is. The Dulbecco’s Minimal Essential Medium (DMEM) formulation contained either high glucose (4.5 g/L, catalogue number: 10569) or low glucose (1 g/L, catalogue number:
(§11) 10567). RPMI-1640 was provided without sodium pyruvate and with L-glutamine (catalogue number: 11875). Phosphate Buffered Saline (PBS) contained NaCl (9 g/L), KH2PO4 (144 mg/L) and Na2HPO4-7.H2O (795 mg/L, catalogue number: 10010049). TrypLE Express™ was provided with EDTA (458 mg/L) and without Phenol Red (catalogue number: 12604021).
(§12) MRC-5 cells (human lung fibroblasts) were grown in monolayer (37 °C, 5 % CO2 and 100 % humidity) in DMEM medium (1 g/L glucose), supplemented with 10% heat-inactivated Fetal Bovine Serum (hiFBS), 2 mM L-glutamine, 100 U / mL penicillin and […]
(§13) streptomycin. […]
(§14) Cells were cultured according to ATCC recommendations and were used for the experiments while in the exponential growth phase. […]
(§15) Cytotoxicity was measured through the alamarBlue® assay (Thermo Fisher Scientific).[S6,S13] Briefly, 5×10^3 MRC-5 or HeLa cells were seeded in 96-wells plates (100 µL / well) in the presence of increasing concentrations of compound. After 72 hrs of incubation at 37 °C, 20 µL of alamarBlue® solution (110 ng / ml) was added to each well and cells were reincubated for 4 hrs at 37 °C. Then, 50 µL of 3 % SDS were added to each well. The plate was incubated at 37 °C for an extra hour and then analysed by fluorescence with an Infinite F200 plate reader (TECAN Austria, GmbH). The excitation wavelength was fixed at 550 nm and the emission wavelength at 590 nm. The results are expressed as the concentration of compound that reduces

Test [5] has as its system HeLa cervical carcinoma cells. In words: Cytotoxicity, alamarBlue assay, HeLa. It counts as cell-based, human. The note with it: for EC50: Homo sapiens, HeLa, 72 h incubation, alamarBlue fluorescence, read-out: absolute EC50 HeLa. How it is done:
as §9, §10, §11
MRC-5 cells (human lung fibroblasts) were grown in monolayer (37 °C, 5 % CO2 and 100 % humidity) in DMEM medium (1 g/L glucose), supplemented with 10% heat-inactivated Fetal Bovine Serum (hiFBS), 2 mM L-glutamine, 100 U / mL penicillin and […] streptomycin. HeLa (Human cervical carcinoma cell line) cells were maintained at 37 °C and 5 % CO2 in high glucose DMEM (4.5 g / L) supplemented with 10% hiFBS, 100 U / ml penicillin, […] streptomycin, 2 mM L-glutamine and non-essential aminoacids (1X).
as §14, §15
On the technique in general: Resazurin is reduced to fluorescent resorufin, in cell work by metabolically active cells.

Another test deals with T. brucei. In words: Trypanocidal activity, alamarBlue assay. Type of test: cell-based. The settings on record: for EC50: Trypanosoma brucei, 72 h incubation, alamarBlue fluorescence, read-out: absolute EC50 T. brucei. How it is done: as §9, §10, §11, §12, §13, §14
hiFBS. Parasites were split every other day and maintained in their experimental growth phase (below 2 million parasites per mL).
as §15

In test [6] the test system is telo23-K+ (DNA, G4) TAGGGTTAGGGTTAGGGTTAGGG
In words: UV-Vis titration. The settings on record: independent/equivalent sites, 10 µM ligand, DNA up to 30 µM, apparent.

Test [7] has as its system telo22-Na+ (DNA, G4) AGGGTTAGGGTTAGGGTTAGGG
The experiment in a line: UV-Vis titration. The note with it: independent/equivalent sites, 10 µM ligand, DNA up to 30 µM, apparent.

Test [8] has as its system EBR1-K+ (DNA, G4) GGGCAGGGGGTGATGGGGAGGAGCCAGGG
The experiment in a line: UV-Vis titration. The settings on record: independent/equivalent sites, 10 µM ligand, DNA up to 30 µM, apparent.

Test [9] deals with ds26-K+ (DNA, duplex) CAATCGGATCGAATTCGATCCGATTG
In words: UV-Vis titration. The settings on record: independent/equivalent sites, 10 µM ligand, DNA up to 30 µM, apparent.

The mark [10] stands for this setting: selectivity index from EC50 values.

Take `CN1CCN(CCCN2C(=O)c3ccc4c5c(ccc(c35)C2=O)C(=O)N(CCCN2CCN(C)CC2)C4=O)CC1` [Compound 1]: the “Ka, telo23-K+” value in [1] is reported as 6×10^6. Further, in [2], the “Ka, telo22-Na+” value was 6×10^4. The “Ka, EBR1-K+” value in test [3] is listed as 2×10^6. In addition, the “Ka, ds26-K+” value in test [4] is reported as 1×10^6. The EC50 – broadly, the concentration needed to bring the measured effect to its halfway point – with MRC5 non-tumoral cells (Homo sapiens, MRC5, 72 h) is 3.9 ± 0.5 µM; in [5] it was 0.5 ± 0.05 µM; with T. brucei, 0.61 ± 0.3 µM. Also, the Ka in test [6] is on record as 6×10^6; in [7], 6×10^4; in test [8], 2×10^6; in test [9], 1×10^6.
Take `CN1CCN(CCCN2C(=O)c3ccc4c5ccc6c7c(ccc(c8ccc(c3c48)C2=O)c75)C(=O)N(CCCN2CCN(C)CC2)C6=O)CC1` [Compound 3]: the “Ka, telo23-K+” value in test [1] is listed as 2×10^6. In [1] (ratio of Ka, UV-Vis), the “selectivity for telo23-K+ G4 over EBR1-K+ G4” value is listed as about 7 fold. Besides, the “selectivity for telo23-K+ G4 over ds26-K+ duplex” value in test [1] (ratio of Ka, UV-Vis) was found to be 40 fold. The “Ka, telo22-Na+” value in test [2] was 8×10^5. Moreover, the “Ka, EBR1-K+” value in test [3] was 3×10^5. Moreover, the “Ka, ds26-K+” value in test [4] is 5×10^4. Also, the EC50 was determined as 2.1 ± 0.6 µM with MRC5 non-tumoral cells; 2 µM with MRC5 non-tumoral cells (Homo sapiens, MRC5, 72 h); 53 ± 6.2 µM in test [5]; 0.027 ± 0.01 µM in the test with T. brucei. In test [5] (setting [10]), the “SI (MRC5/HeLa)” value amounted to 0.04. In addition, the “SI (MRC5/T. brucei)” value in the test with T. brucei (setting [10]) is 78. Also, the Ka in test [6] was 2×10^6; in [7] it was 8×10^5; in test [8] it was 3×10^5; in [9], 5×10^4.
On to `CN1CCN(CCCN2C(=O)c3ccc(Oc4ccc(C(C)(C)c5ccc(Oc6ccc7c(c6)C(=O)N(CCCN6CCN(C)CC6)C7=O)cc5)cc4)cc3C2=O)CC1` [Compound 9], for which the concentration giving a half-maximal response (EC50) came out at 88 ± 10 µM in the test on MRC5 non-tumoral cells (Homo sapiens, MRC5, 72 h); 29 ± 3.5 µM in test [5]; 33 ± 24 µM in the test on T. brucei.
The matching figures for `CN1CCN(CCCNC(=O)c2ccc(Oc3ccc(C(C)(C)c4ccc(Oc5ccc(C(=O)NCCCN6CCN(C)CC6)c(C(=O)NCCCN6CCN(C)CC6)c5)cc4)cc3)cc2C(=O)NCCCN2CCN(C)CC2)CC1` [Compound 11]: 59 ± 37 µM, 14 ± 1 µM and 2.8 ± 2 µM.

(Values after paper PMC8251916 (Chemistry (Weinheim an Der Bergstrasse, Germany), 2021).)
